Publication PMC5218480 (PLoS ONE, 2017)

Test system: MV-4-11 cells
Test: Gene expression microarray analysis (Affymetrix PrimeView) and GSEA
Format: cell-based, human
Set-up: RFU PODN (11730768_x_at) / Fold change /veh PODN (11730768_x_at) / RFU LINC00158 (11744669_a_at) / Fold change /veh LINC00158 (11744669_a_at) / RFU DUSP10 (11751237_a_at) / Fold change /veh DUSP10 (11751237_a_at) / RFU ID3 (11757404_x_at) / Fold change /veh ID3 (11757404_x_at) / RFU PLEKHG5 (11737974_s_at) / Fold change /veh PLEKHG5 (11737974_s_at) / RFU LRRC4B (11730491_at) / Fold change /veh LRRC4B (11730491_at) / RFU GIMAP4 (11747438_a_at) / Fold change /veh GIMAP4 (11747438_a_at) / RFU KRT8 (11758183_x_at) / Fold change /veh KRT8 (11758183_x_at) / RFU CNN1 (11734310_a_at) / Fold change /veh CNN1 (11734310_a_at) / RFU VPS37D (11726825_at) / Fold change /veh VPS37D (11726825_at) / RFU C10orf10 (11716522_x_at) / Fold change /veh C10orf10 (11716522_x_at) / RFU KIR2DL2 /// KIR2DL4 /// KIR2DL5A /// KIR2DL5B /// KIR2DS1 /// KIR2DS2 /// KIR2DS3 /// KIR2DS4 /// KIR3DL3 /// KIR3DL3 /// KIR3DS1 (11738374_at) / Fold change /veh KIR2DL2 /// KIR2DL4 /// KIR2DL5A /// KIR2DL5B /// KIR2DS1 /// KIR2DS2 /// KIR2DS3 /// KIR2DS4 /// KIR3DL3 /// KIR3DL3 /// KIR3DS1 (11738374_at) / RFU C1QL1 (11718748_at) / Fold change /veh C1QL1 (11718748_at) / RFU TMPRSS4 (11747572_a_at) / Fold change /veh TMPRSS4 (11747572_a_at) / RFU HAMP (11756126_x_at) / Fold change /veh HAMP (11756126_x_at) / RFU RNFT2 (11725882_a_at) / Fold change /veh RNFT2 (11725882_a_at) / RFU NR4A2 (11747474_a_at) / Fold change /veh NR4A2 (11747474_a_at) / RFU ABCC12 (11746883_a_at) / Fold change /veh ABCC12 (11746883_a_at) / RFU TMEM136 (11760407_x_at) / Fold change /veh TMEM136 (11760407_x_at) / RFU CLDN22 /// WWC2 (11732394_at) / Fold change /veh CLDN22 /// WWC2 (11732394_at) / RFU HLA-DPB1 (11760878_x_at) / Fold change /veh HLA-DPB1 (11760878_x_at) / RFU SPINT1 (11716480_a_at) / Fold change /veh SPINT1 (11716480_a_at) / RFU GAP43 (11754022_s_at) / Fold change /veh GAP43 (11754022_s_at) / RFU A4GNT (11735810_at) / Fold change /veh A4GNT (11735810_at) / RFU PRB3 (11715151_x_at) / Fold change /veh PRB3 (11715151_x_at) / RFU TUBB4B (11761932_at) / Fold change /veh TUBB4B (11761932_at) / RFU CAPN14 (11732068_a_at) / Fold change /veh CAPN14 (11732068_a_at) / RFU TMCC2 (11721928_a_at) / Fold change /veh TMCC2 (11721928_a_at) / RFU IRGQ (11745062_a_at) / Fold change /veh IRGQ (11745062_a_at) / RFU FAM174B (11720279_a_at) / Fold change /veh FAM174B (11720279_a_at) / RFU TMPRSS4 (11748680_a_at) / Fold change /veh TMPRSS4 (11748680_a_at) / RFU FAM212B (11763350_a_at) / Fold change /veh FAM212B (11763350_a_at) / RFU PLEKHG5 (11743358_a_at) / Fold change /veh PLEKHG5 (11743358_a_at) / RFU ZSCAN30 (11745921_a_at) / Fold change /veh ZSCAN30 (11745921_a_at) / RFU CMKLR1 (11741424_a_at) / Fold change /veh CMKLR1 (11741424_a_at) / RFU LOC101060620 /// MAPK8IP1 (11723275_at) / Fold change /veh LOC101060620 /// MAPK8IP1 (11723275_at) / RFU SPTSSB (11747773_x_at) / Fold change /veh SPTSSB (11747773_x_at) / RFU PRSS12 (11739890_at) / Fold change /veh PRSS12 (11739890_at) / RFU BIN1 (11741810_x_at) / Fold change /veh BIN1 (11741810_x_at) / RFU WNT11 (11732464_a_at) / Fold change /veh WNT11 (11732464_a_at) / RFU C10orf10 (11716521_a_at) / Fold change /veh C10orf10 (11716521_a_at) / RFU C5orf56 (11738089_at) / Fold change /veh C5orf56 (11738089_at) / RFU CYB561 (11721691_x_at) / Fold change /veh CYB561 (11721691_x_at) / RFU ANKRD19P (11752326_a_at) / Fold change /veh ANKRD19P (11752326_a_at) / RFU OR2T12 /// OR2T33 /// OR2T8 (11738714_s_at) / Fold change /veh OR2T12 /// OR2T33 /// OR2T8 (11738714_s_at) / RFU VCAN (11748164_a_at) / Fold change /veh VCAN (11748164_a_at) / RFU JSRP1 (11732532_at) / Fold change /veh JSRP1 (11732532_at) / RFU KRTAP10-11 (11738290_x_at) / Fold change /veh KRTAP10-11 (11738290_x_at) / RFU MYO3A (11730013_a_at) / Fold change /veh MYO3A (11730013_a_at) / RFU EBF3 (11725865_a_at) / Fold change /veh EBF3 (11725865_a_at) / RFU CAMK2N1 (11719241_x_at) / Fold change /veh CAMK2N1 (11719241_x_at) / RFU C5orf56 (11738088_a_at) / Fold change /veh C5orf56 (11738088_a_at) / RFU OLFML3 (11715873_a_at) / Fold change /veh OLFML3 (11715873_a_at) / RFU LOC100653217 /// NTM (11731650_a_at) / Fold change /veh LOC100653217 /// NTM (11731650_a_at) / RFU MAPK11 (11762145_a_at) / Fold change /veh MAPK11 (11762145_a_at) / RFU FIZ1 (11724087_x_at) / Fold change /veh FIZ1 (11724087_x_at) / RFU OASL (11726364_x_at) / Fold change /veh OASL (11726364_x_at) / RFU SOX15 (11748057_x_at) / Fold change /veh SOX15 (11748057_x_at) / RFU CD79A (11719716_a_at) / Fold change /veh CD79A (11719716_a_at) / RFU HIST1H1D (11736915_at) / Fold change /veh HIST1H1D (11736915_at) / RFU CASKIN2 (11723855_a_at) / Fold change /veh CASKIN2 (11723855_a_at) / RFU LOC730098 (11760151_x_at) / Fold change /veh LOC730098 (11760151_x_at) / RFU OR4N2 (11742367_at) / Fold change /veh OR4N2 (11742367_at) / RFU PRRT2 (11749266_a_at) / Fold change /veh PRRT2 (11749266_a_at) / RFU SNX32 (11753110_a_at) / Fold change /veh SNX32 (11753110_a_at) / RFU CDHR5 (11726645_a_at) / Fold change /veh CDHR5 (11726645_a_at) / RFU RCAN1 (11760418_a_at) / Fold change /veh RCAN1 (11760418_a_at) / RFU FAM167A (11723789_a_at) / Fold change /veh FAM167A (11723789_a_at) / RFU FAM26E (11764081_at) / Fold change /veh FAM26E (11764081_at) / RFU ISYNA1 (11749810_s_at) / Fold change /veh ISYNA1 (11749810_s_at) / RFU ACY1 (11761880_at) / Fold change /veh ACY1 (11761880_at) / RFU 11764098_at / Fold change /veh 11764098_at / RFU SAMD14 (11745864_x_at) / Fold change /veh SAMD14 (11745864_x_at) / RFU NPB (11741838_a_at) / Fold change /veh NPB (11741838_a_at) / RFU TMPRSS6 (11731388_a_at) / Fold change /veh TMPRSS6 (11731388_a_at) / RFU KRTAP10-2 (11738614_at) / Fold change /veh KRTAP10-2 (11738614_at) / RFU ARHGAP8 /// PRR5-ARHGAP8 (11727945_x_at) / Fold change /veh ARHGAP8 /// PRR5-ARHGAP8 (11727945_x_at) / RFU KRTAP5-7 /// NADSYN1 (11734609_at) / Fold change /veh KRTAP5-7 /// NADSYN1 (11734609_at) / RFU RASL12 (11751679_a_at) / Fold change /veh RASL12 (11751679_a_at) / RFU CDKN2B (11736163_a_at) / Fold change /veh CDKN2B (11736163_a_at) / RFU PRF1 (11729649_at) / Fold change /veh PRF1 (11729649_at) / RFU, ZNF638 /// ZNF638-IT1 / Fold change vs veh, ZNF638 /// ZNF638-IT1 / RFU, PANK3 / Fold change vs veh, PANK3 / RFU, SH3YL1 / Fold change vs veh, SH3YL1 / RFU, ZEB2 / Fold change vs veh, ZEB2 / RFU, NRIP1 / Fold change vs veh, NRIP1 / RFU, PTTG1IP / Fold change vs veh, PTTG1IP / RFU, CAPN2 / Fold change vs veh, CAPN2 / RFU, MED14 / Fold change vs veh, MED14 / RFU, SNORA58 / Fold change vs veh, SNORA58 / RFU, C1orf63 / Fold change vs veh, C1orf63 / RFU, LRRFIP1 / Fold change vs veh, LRRFIP1 / RFU, NDUFAF7 / Fold change vs veh, NDUFAF7 / RFU, SLC12A2 / Fold change vs veh, SLC12A2 / RFU, IBTK / Fold change vs veh, IBTK / RFU, ESF1 / Fold change vs veh, ESF1 / Fold change vs veh, TMEM50B / RFU, TAOK1 / Fold change vs veh, TAOK1 / RFU, ACBD3 / Fold change vs veh, ACBD3 / RFU, TMA16 / Fold change vs veh, TMA16 / RFU, RWDD3 / Fold change vs veh, RWDD3 / RFU, BCAT1 / Fold change vs veh, BCAT1 / RFU, EDEM3 / Fold change vs veh, EDEM3 / RFU, TMEM33 / Fold change vs veh, TMEM33 / RFU, WDR75 / Fold change vs veh, WDR75 / RFU, AHCTF1 / Fold change vs veh, AHCTF1 / RFU, TFRC / Fold change vs veh, TFRC / RFU, ZDHHC17 / Fold change vs veh, ZDHHC17 / RFU, NOM1 / Fold change vs veh, NOM1 / RFU, ARL8B / Fold change vs veh, ARL8B / RFU, ZBTB11 / Fold change vs veh, ZBTB11 / RFU, TAMM41 / Fold change vs veh, TAMM41 / RFU, KIAA1704 /// LOC100996395 / Fold change vs veh, KIAA1704 /// LOC100996395 / RFU, ING1 / Fold change vs veh, ING1 / RFU, TRMT61B / Fold change vs veh, TRMT61B / RFU, FUBP3 / Fold change vs veh, FUBP3 / RFU, TP53 / Fold change vs veh, TP53 / RFU, TNKS2 / Fold change vs veh, TNKS2 / RFU, ZFP14 / Fold change vs veh, ZFP14 / RFU, ACTR2 / Fold change vs veh, ACTR2 / RFU, PPP3R1 / Fold change vs veh, PPP3R1 / RFU, PIK3R1 / Fold change vs veh, PIK3R1 / RFU, HNRNPA1 / Fold change vs veh, HNRNPA1 / RFU, RNF170 / Fold change vs veh, RNF170 / RFU, ZNF28 / Fold change vs veh, ZNF28 / RFU, RNGTT / Fold change vs veh, RNGTT / RFU, OGT / Fold change vs veh, OGT / RFU, BRD1 / Fold change vs veh, BRD1 / RFU, MARS / Fold change vs veh, MARS / RFU, ZNF655 / Fold change vs veh, ZNF655 / RFU, FAHD1 / Fold change vs veh, FAHD1 / RFU, BDP1 / Fold change vs veh, BDP1 / RFU, LRRCC1 / Fold change vs veh, LRRCC1 / RFU, ARID1A / Fold change vs veh, ARID1A / RFU, ZNF146 / Fold change vs veh, ZNF146 / RFU, ZNF330 / Fold change vs veh, ZNF330 / RFU, GPN3 / Fold change vs veh, GPN3 / RFU, C9orf123 / Fold change vs veh, C9orf123 / RFU, N4BP2L2 / Fold change vs veh, N4BP2L2 / RFU, ARFIP1 / Fold change vs veh, ARFIP1 / RFU, FAM179B / Fold change vs veh, FAM179B / RFU, BCL10 / Fold change vs veh, BCL10 / RFU, UHRF1BP1L / Fold change vs veh, UHRF1BP1L / RFU, BET1 / Fold change vs veh, BET1 / RFU, CNOT2 / Fold change vs veh, CNOT2 / RFU, ZNF268 / Fold change vs veh, ZNF268 / Fold change vs veh, ZNF507 / RFU, DGCR2 / Fold change vs veh, DGCR2 / RFU, WDSUB1 / Fold change vs veh, WDSUB1 / Fold change vs veh, HSP90B1 /// MIR3652 / RFU, ADSS / Fold change vs veh, ADSS / RFU, GK / Fold change vs veh, GK / RFU, ZNF148 / Fold change vs veh, ZNF148 / RFU, TAF9 / Fold change vs veh, TAF9 / RFU, SLC1A5 / Fold change vs veh, SLC1A5 / RFU, SLMO2 / Fold change vs veh, SLMO2 / RFU, ABCC4 / Fold change vs veh, ABCC4 / RFU, LOC101060439 /// RAP1B / Fold change vs veh, LOC101060439 /// RAP1B / RFU, RFX7 / Fold change vs veh, RFX7 / RFU, GTPBP10 / Fold change vs veh, GTPBP10 / RFU, CNEP1R1 / Fold change vs veh, CNEP1R1 / RFU, BIVM-ERCC5 /// ERCC5 / Fold change vs veh, BIVM-ERCC5 /// ERCC5 / RFU, ILF3 / Fold change vs veh, ILF3 / RFU 11762660_at / Fold change /veh 11762660_at / RFU VCAN (11757783_s_at) / Fold change /veh VCAN (11757783_s_at) / RFU DDX43 (11728927_at) / Fold change /veh DDX43 (11728927_at) / RFU KRT8 (11758188_x_at) / Fold change /veh KRT8 (11758188_x_at) / RFU NKD1 (11759106_at) / Fold change /veh NKD1 (11759106_at) / RFU SRD5A1 (11742802_a_at) / Fold change /veh SRD5A1 (11742802_a_at) / RFU TPSAB1 /// TPSB2 (11721975_s_at) / Fold change /veh TPSAB1 /// TPSB2 (11721975_s_at) / RFU GSTM3 (11746129_a_at) / Fold change /veh GSTM3 (11746129_a_at) / RFU IL23R (11737362_x_at) / Fold change /veh IL23R (11737362_x_at) / RFU TMEM51 (11727254_a_at) / Fold change /veh TMEM51 (11727254_a_at) / RFU PIWIL2 (11732686_x_at) / Fold change /veh PIWIL2 (11732686_x_at) / RFU ORM1 (11744905_x_at) / Fold change /veh ORM1 (11744905_x_at) / RFU CCDC152 (11743942_at) / Fold change /veh CCDC152 (11743942_at) / RFU ECM1 (11717891_a_at) / Fold change /veh ECM1 (11717891_a_at) / RFU IL23R (11748794_a_at) / Fold change /veh IL23R (11748794_a_at) / RFU TNFAIP8L3 (11732012_x_at) / Fold change /veh TNFAIP8L3 (11732012_x_at) / RFU MBOAT4 (11741988_at) / Fold change /veh MBOAT4 (11741988_at) / RFU 11764193_at / Fold change /veh 11764193_at / RFU TMEM53 (11763286_at) / Fold change /veh TMEM53 (11763286_at) / RFU MAGEB2 (11727129_at) / Fold change /veh MAGEB2 (11727129_at) / RFU TMEM200A (11744735_a_at) / Fold change /veh TMEM200A (11744735_a_at) / RFU CCDC152 (11751479_a_at) / Fold change /veh CCDC152 (11751479_a_at) / RFU FAM211A (11726209_a_at) / Fold change /veh FAM211A (11726209_a_at) / RFU RGS16 (11746705_a_at) / Fold change /veh RGS16 (11746705_a_at) / RFU VCAN (11755009_s_at) / Fold change /veh VCAN (11755009_s_at) / RFU RHOB (11743442_s_at) / Fold change /veh RHOB (11743442_s_at) / RFU RGS16 (11720943_a_at) / Fold change /veh RGS16 (11720943_a_at) / RFU RGS16 (11720944_at) / Fold change /veh RGS16 (11720944_at) / RFU, VPS4B / Fold change vs veh, VPS4B / RFU, CREB1 / Fold change vs veh, CREB1 / RFU, DNAJC13 / Fold change vs veh, DNAJC13 / RFU, GNAQ / Fold change vs veh, GNAQ / RFU, CDK5R1 / Fold change vs veh, CDK5R1 / RFU, ZRANB3 / Fold change vs veh, ZRANB3 / RFU, CUL4A / Fold change vs veh, CUL4A / RFU, CCNY / Fold change vs veh, CCNY / RFU, UFL1 / Fold change vs veh, UFL1 / RFU, COG3 / Fold change vs veh, COG3 / RFU, DIAPH2 / Fold change vs veh, DIAPH2 / RFU, SKA2 / Fold change vs veh, SKA2 / RFU, AFF3 / Fold change vs veh, AFF3 / RFU, LMF1 / Fold change vs veh, LMF1 / RFU, IPO11 / Fold change vs veh, IPO11 / RFU, DFFB / Fold change vs veh, DFFB / RFU, FOXP1 / Fold change vs veh, FOXP1 / RFU, CARD8 / Fold change vs veh, CARD8 / RFU, STRN3 / Fold change vs veh, STRN3 / RFU, ADK / Fold change vs veh, ADK / RFU, RASSF2 / Fold change vs veh, RASSF2 / RFU, WIPF1 / Fold change vs veh, WIPF1 / RFU, LARP1B / Fold change vs veh, LARP1B / RFU, RASA1 / Fold change vs veh, RASA1 / RFU, RB1 / Fold change vs veh, RB1 / RFU, PPFIA1 / Fold change vs veh, PPFIA1 / RFU, MAT2A / Fold change vs veh, MAT2A / RFU, CCT5 / Fold change vs veh, CCT5 / RFU, WDR92 / Fold change vs veh, WDR92 / RFU, CUX1 / Fold change vs veh, CUX1 / RFU, TTC7A / Fold change vs veh, TTC7A / RFU, TMEM135 / Fold change vs veh, TMEM135 / RFU, DEPTOR / Fold change vs veh, DEPTOR / RFU, CPM / Fold change vs veh, CPM / RFU, DNAJB6 / Fold change vs veh, DNAJB6 / RFU, CACNA2D3 / Fold change vs veh, CACNA2D3 / RFU, DTX4 / Fold change vs veh, DTX4 / RFU, TFCP2 / Fold change vs veh, TFCP2 / RFU, GMCL1 /// GMCL1P1 / Fold change vs veh, GMCL1 /// GMCL1P1 / RFU, AEBP2 / Fold change vs veh, AEBP2 / RFU, SNHG1 /// SNORD22 /// SNORD25 /// SNORD26 /// SNORD27 /// SNORD28 /// SNORD29 /// SNORD31 / Fold change vs veh, SNHG1 /// SNORD22 /// SNORD25 /// SNORD26 /// SNORD27 /// SNORD28 /// SNORD29 /// SNORD31 / Fold change (Aza/veh), C12orf56 (ProbeSet 11735607_a_at) / Fold change (ACY-1035/veh), C12orf56 (ProbeSet 11735607_a_at) / Fold change (Aza/veh), FGFR1OP (ProbeSet 11751329_s_at) / Fold change (ACY-1035/veh), FGFR1OP (ProbeSet 11751329_s_at) / Fold change (Aza/veh), VPS36 (ProbeSet 11739960_a_at) / Fold change (ACY-1035/veh), VPS36 (ProbeSet 11739960_a_at) / RFU SYPL1 (11715823_x_at) / Fold change /veh SYPL1 (11715823_x_at) / RFU IGFBP7 (11715501_s_at) / Fold change /veh IGFBP7 (11715501_s_at) / RFU REEP3 (11722064_at) / Fold change /veh REEP3 (11722064_at) / RFU IGLL1 (11728026_x_at) / Fold change /veh IGLL1 (11728026_x_at): dose or concentration left out as unconfirmed
Conditions: ProbeSet 11748670_a_at; LIST B

Nc1ncn([C@@H]2O[C@H](CO)[C@@H](O)[C@H]2O)c(=O)n1 [azacitidine]
RFU, PIK3R1: 80.66 RFU
